The text below walks through data of patent US7585851B2, “3′-prodrugs of 2′-deoxy-β-L-nucleosides” (priority 2000, dated 2009).

Data set [1] addresses virion-associated DNA polymerase of WHV (Woodchuck hepatitis B virus, UniProt P03160). Kind of data set: biochemical.
In data set [2] the target is T1, human DNA polymerase β (Homo sapiens, UniProt P06746). As to conditions: from Chang, et al. / Yao, read-out: IC50 Human DNA pol β; cited from earlier work.
Data set [3] has as its target T2, human DNA polymerase γ (Homo sapiens, UniProt P54098).
T2 sequence (P54098 1-1239): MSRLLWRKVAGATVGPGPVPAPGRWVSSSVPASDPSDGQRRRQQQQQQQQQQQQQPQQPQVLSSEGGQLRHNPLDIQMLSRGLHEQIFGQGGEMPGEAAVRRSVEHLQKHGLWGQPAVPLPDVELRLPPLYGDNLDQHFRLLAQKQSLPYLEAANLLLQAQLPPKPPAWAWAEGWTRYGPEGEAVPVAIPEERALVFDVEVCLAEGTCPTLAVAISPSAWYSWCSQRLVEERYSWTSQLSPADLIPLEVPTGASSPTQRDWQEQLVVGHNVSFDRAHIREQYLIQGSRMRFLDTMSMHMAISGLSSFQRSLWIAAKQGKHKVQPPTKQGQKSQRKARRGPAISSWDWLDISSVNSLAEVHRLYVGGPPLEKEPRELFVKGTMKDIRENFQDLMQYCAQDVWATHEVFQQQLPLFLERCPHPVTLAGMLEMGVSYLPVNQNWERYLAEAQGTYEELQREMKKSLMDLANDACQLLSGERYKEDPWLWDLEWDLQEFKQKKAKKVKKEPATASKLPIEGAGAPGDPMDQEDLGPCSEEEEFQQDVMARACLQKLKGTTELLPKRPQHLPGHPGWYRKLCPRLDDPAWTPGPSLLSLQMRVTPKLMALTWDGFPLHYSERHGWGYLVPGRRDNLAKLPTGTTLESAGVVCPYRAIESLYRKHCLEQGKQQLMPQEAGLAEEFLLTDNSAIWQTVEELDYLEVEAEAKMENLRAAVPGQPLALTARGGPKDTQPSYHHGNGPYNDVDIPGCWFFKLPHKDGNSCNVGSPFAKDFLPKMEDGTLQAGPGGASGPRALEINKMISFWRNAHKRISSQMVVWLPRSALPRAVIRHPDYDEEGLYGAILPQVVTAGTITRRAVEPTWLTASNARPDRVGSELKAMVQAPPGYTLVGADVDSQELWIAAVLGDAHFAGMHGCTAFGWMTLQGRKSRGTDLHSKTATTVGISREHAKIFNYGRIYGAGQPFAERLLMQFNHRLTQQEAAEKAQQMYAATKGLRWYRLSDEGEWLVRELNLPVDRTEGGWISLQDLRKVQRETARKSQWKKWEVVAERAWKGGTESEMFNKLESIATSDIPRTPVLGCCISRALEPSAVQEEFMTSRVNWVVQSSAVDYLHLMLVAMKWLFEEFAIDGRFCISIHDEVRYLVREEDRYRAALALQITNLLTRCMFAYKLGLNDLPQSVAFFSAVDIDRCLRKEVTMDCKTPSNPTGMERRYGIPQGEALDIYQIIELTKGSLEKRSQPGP
To be noted: from Chang, et al. / Yao; cited from earlier work.

Data set [4] addresses T1, human DNA polymerase β. Type of data set: biochemical. As to conditions: highest concentration tested 100 μM; read-out: IC50 Human DNA pol β. The text has this: (§1) Nucleosides and nucleoside analogs are usually metabolized within cells to their TP derivatives. Cellular DNA polymerases are routinely responsible for normal nuclear and mitochondrial DNA synthesis and repair. Because the TP metabolites are potential substrates for DNA polymerases, studies were undertaken to determine if L-dC-TP inhibited human DNA polymerases.

For data set [5], the target named is T2, human DNA polymerase γ. Type of data set: biochemical. To be noted: highest concentration tested 100 μM.
From the text: as §1

The test system of data set [6] is HepG2 cells. As to conditions: human.
The nature of the next data set: in vitro. As to conditions: human.
The nature of data set [7]: Single dose bioavailability of dival-L-dC (IV and oral) in cynomologus monkey. It is filed as in vivo, cynomologus monkey (macaca fascicularis). To be noted: oral dival-L-dC; analyte = label. The text has this:
The drug was quantitated in plasma and urine with a liquid chromatography-mass spectrometry (LC-MS) technique.

Data set [8] concerns cytosolic extracts of HepG2 cells. In words: Steady state phosphorylation kinetics in HepG2 cytosolic extracts. Type of data set: biochemical, human.
Data set [9] is described as follows: Solubility study in water (HPLC). As to conditions: for Solubility (g/L) / Solubility (mol/L): in water.
The conditions of data set [10]: Day 25, analyte = label.
The conditions of data set [11]: for Tlast: analyte = label.
Data set [12] in a line: Bioavailability of the prodrugs of L-dC in monkeys, with and without L-dT. To be noted: for % BA (bioavailability of L-dC): estimated relative to AUC of L-dC (oral dose).
Data set [13] is described as follows: Mitochondrial toxicity assay in HepG2 cells. Type of data set: cell-based, human. To be noted: human.
For data set [14] the following is noted: octanol-1 / MilliQ water pH 6.5; Study 1, Study 2; listed as L-dC-3′,5′-divalinyl ester hydrochloride. As to the method: (§2) To 1 mL of this solution, 1 mL of octanol-1 (B) saturated with MilliQ water (A′) was added.
as §2

Data set [15] can be described thus: Oral bioavailability of L-dC via dival-L-dC in cynomologus monkey (HPLC study). The text has this: The drug was quantitated in plasma and in urine using HPLC analysis.
Data set [16] can be described thus: Escalating oral dose toxicity of dival-L-dC in monkeys. Type of data set: in vivo, cynomologus monkey. The text has this:
[…]. […] Clinical observations were documented daily. Blood samples for hematology and serum chemistries were collected and body weight measured before treatment on Days 1, 4, 7, 10, and 14, and before necropsy on Day 17. After completion of Day 17 evaluations, all animals were euthanized and a complete necropsy performed, including macroscopic examination and comprehensive tissue collection.

For data set [17] the following is noted: human.
Data set [18] is described as follows: Log P study, octanol-1/phosphate buffer pH 7.2.
The subject of data set [19] is human erythroid burst-forming (BFU-E) progenitor cells. It is filed as cell-based. To be noted: human bone marrow clonogenic assay. The text has this:
(§3) In particular, anemia and neutropenia are the most common drug-related clinical toxicities associated with the anti-HIV drug zidovudine (ZDV).

The subject of data set [20] is human granulocyte-macrophage colony-forming (CFU-GM) progenitor cells. Type of data set: cell-based. To be noted: human bone marrow clonogenic assay.
From the text: as §3

For data set [21], the system named is HepG2 cells. In words: Mitochondrial toxicity assay in HepG2 cells. Type of data set: cell-based, human. To be noted: human.
Setting [22] is: endogenous polymerase assay, read-out: IC50 Viral DNA pol (WHV DNA polymerase).

In brackets after ≈: the same amount, converted by molar mass. Several values for one entry are separate records, joined by “and”; a condition that tells them apart may be missing. Equal values may be shown once. Where a name gives a salt, the structure may show the parent alone. Read-outs that look alike come from different tables or passages of the source.

Sequence of virion-associated DNA polymerase of WHV (P03160 whole entry): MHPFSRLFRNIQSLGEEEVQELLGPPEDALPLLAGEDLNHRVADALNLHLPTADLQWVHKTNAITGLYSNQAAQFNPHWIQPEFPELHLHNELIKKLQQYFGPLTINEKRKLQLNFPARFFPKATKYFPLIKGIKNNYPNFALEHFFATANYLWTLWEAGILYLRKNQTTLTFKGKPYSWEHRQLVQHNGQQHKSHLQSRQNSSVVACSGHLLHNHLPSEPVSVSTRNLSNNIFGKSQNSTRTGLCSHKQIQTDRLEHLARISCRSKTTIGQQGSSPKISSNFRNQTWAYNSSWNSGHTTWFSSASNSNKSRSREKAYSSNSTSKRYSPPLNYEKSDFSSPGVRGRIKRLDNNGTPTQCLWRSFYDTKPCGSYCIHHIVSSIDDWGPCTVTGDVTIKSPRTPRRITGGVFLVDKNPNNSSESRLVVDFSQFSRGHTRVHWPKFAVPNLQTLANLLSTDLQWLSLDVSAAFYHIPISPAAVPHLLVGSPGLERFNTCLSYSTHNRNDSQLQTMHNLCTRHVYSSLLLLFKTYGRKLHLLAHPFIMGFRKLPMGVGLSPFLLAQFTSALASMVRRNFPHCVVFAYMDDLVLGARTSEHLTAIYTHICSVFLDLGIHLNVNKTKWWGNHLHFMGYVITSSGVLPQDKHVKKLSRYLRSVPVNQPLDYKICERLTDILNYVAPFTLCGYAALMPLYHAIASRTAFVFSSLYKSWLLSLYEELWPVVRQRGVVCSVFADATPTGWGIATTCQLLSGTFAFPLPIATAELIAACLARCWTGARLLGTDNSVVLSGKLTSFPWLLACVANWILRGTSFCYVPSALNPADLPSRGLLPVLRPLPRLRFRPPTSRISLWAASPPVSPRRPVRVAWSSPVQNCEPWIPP

One may read the IC50 as the concentration that inhibits the measured activity by half. With `Nc1ccn([C@@H]2CS[C@H](COP(=O)(O)OP(=O)(O)OP(=O)(O)O)O2)c(=O)n1` [Lamivudine-TP], the IC50 in data set [1] (setting [22]) was 500 ± 100 nM; on human DNA polymerase β [2], 1200 nM; at human DNA polymerase γ [3] it was 10 nM.
In general, half-life refers to how long it takes for the measured level to halve. With `Nc1ccn([C@@H]2C[C@@H](O)[C@H](COP(=O)(O)OP(=O)(O)OP(=O)(O)O)O2)c(=O)n1` [L-dC-TP], the IC50 in data set [1] was 1820 nM; on human DNA polymerase β [4], greater than 100000 nM; on human DNA polymerase γ [5] it was greater than 100000 nM. In addition, the apparent intracellular half-life with HepG2 cells [6] is 15.5 ± 0.34 h. The half-life in “in vitro” is 15.5 h.
Take `O=c1ccn([C@@H]2C[C@@H](O)[C@H](CO)O2)c(=O)[nH]1` [L-dU, β-L-2′-deoxyuridine]: the “share of drug excreted / recovered dose in urine, by analyte” value in [7] was “approximately 2.5%”.
As for `Nc1ccn([C@H]2C[C@H](O)[C@@H](CO)O2)c(=O)n1` [D-dC, D-Deoxycytidine, reference compound], in data set [8], the Vmax of phosphorylation came out at 2.15 nmol/min/mg protein. In addition, in [9], the “Solubility (g/L)” value is reported as 272 g/L (≈ 1200 mM) and the “Solubility (mol/L)” value was found to be 1.03 mol/L (≈ 234 mg/mL).
For the compound `CC(C)[C@H](N)C(=O)OC[C@@H]1O[C@H](n2ccc(N)nc2=O)C[C@H]1O` [5′-val-L-dC, 5′-L-valine ester of 2′-deoxy-β-L-cytidine hydrochloride], the “Tlast (median)” value in [10] (dival-L-dC 1000 mg/kg/day oral, F) was 4 h; in [10] (dival-L-dC 1000 mg/kg/day oral, M) it was 5 h; in [10] (dival-L-dC 2000 mg/kg/day oral, F), 8 h. Besides, the Tlast in [11] (dival-L-dC 1000 mg/kg/day oral, Day 1, F) was found to be 4 h; in data set [11] (dival-L-dC 1000 mg/kg/day oral, Day 1, M) it was 4 h; in [11] (dival-L-dC 1000 mg/kg/day oral, Day 28, F) it was 4 h; in data set [11] (dival-L-dC 1000 mg/kg/day oral, Day 28, M) it was 8 h; in [11] (dival-L-dC 2000 mg/kg/day oral, Day 1, F) it was 8 h; in [11] (dival-L-dC 2000 mg/kg/day oral, Day 1, M), 8 h. In addition, the Tlast in data set [11] (dival-L-dC 2000 mg/kg/day oral, Day 28, F) was 24 h; in data set [11] (dival-L-dC 2000 mg/kg/day oral, Day 28, M), 8 h. Besides, the “% BA (bioavailability of L-dC)” value in data set [12] (oral) is 39.0 ± 11.4%.
Regarding `Nc1ncnc2c1ncn2[C@@H]1CC[C@H](COP(=O)(O)OP(=O)(O)OP(=O)(O)O)O1` [L-ddA-TP], in data set [1] (setting [22]), the concentration for half-maximal inhibition (IC50) is 2000 ± 300 nM.
On to `Cc1cn([C@H]2O[C@@H](COP(=O)(O)OP(=O)(O)OP(=O)(O)O)[C@H](O)[C@H]2F)c(=O)[nH]c1=O` [L-FMAU-TP], for which the 50% inhibitory concentration (IC50) in data set [1] (setting [22]) was 150 ± 50 nM; at human DNA polymerase β [2], greater than 50000 nM; at human DNA polymerase γ [3], greater than 50000 nM.
Turning to `Cc1cn([C@H]2C[C@H](O)[C@@H](CO)O2)c(=O)[nH]c1=O` [Thd, D-thymidine], the Vmax of phosphorylation in [8] was determined as 1.26 nmol/min/mg protein.
What is called CC50 is the concentration giving 50% cytotoxicity. Compound `Nc1ccn([C@H]2CC[C@@H](CO)O2)c(=O)n1` [ddC, zalcitabine, reference compound] yielded a CC50 at 14 days in [13] of 20000 nM.
For the compound `CC(C)[C@H](N)C(=O)O[C@@H]1C[C@@H](n2ccc(N)nc2=O)O[C@H]1CO` [3′-val-L-dC, 3′-L-valine ester of 2′-deoxy-β-L-cytidine], the “Solubility (g/L)” value in data set [9] and in data set [9] (listed as 3′-valinyl ester hydrochloride of β-L-dC) was greater than 408 g/L throughout. For the same compound, in [9] (water, saturation not obtained, 3 samples, listed as 3′-valinyl ester hydrochloride of β-L-dC), the “Concentration of solution of the maximum quantity available, single samples” value was 1.013 mol/L and 0.996 mol/L and 1.059 mol/L. Also, the “% BA (bioavailability of L-dC)” value in data set [12] (oral) is given as 85.1 ± 24.5%.
A word on the NOAEL: it is the highest dose or exposure tested at which no adverse effect was seen. As for `CC(C)[C@H](N)C(=O)OC[C@@H]1O[C@H](n2ccc(N)nc2=O)C[C@H]1OC(=O)[C@@H](N)C(C)C` [dival-L-dC, 3′,5′-L-divaline ester of 2′-deoxy-β-L-cytidine], the “P′ (B/A′)” value in [14] was 1.80 × 10^−3 and 1.77 × 10^−3. The “administered oral dose recovered in urine” value in [15] (after 72 hours) was 31%; in data set [15] (within 8 hours) it was “Approximately 26%”. The “loss in body weight following the initial dose on Day 1” value in [16] (20 mg/kg oral, each animal) was “approximately 0.6 kg”. In addition, the “BUN decrease at Day 17 compared to Day 1” value in data set [16] (cumulative, all four monkeys) was roughly 43%. The NOAEL in [16] (single oral dose by gavage (escalation 20-2000 mg/kg), monkey) is on record as 2000 mg/kg; in [11] (28 day oral, rat) it was less than 500 mg/kg. Further, the plasma protein binding in data set [17] is 13.3%±2.6%. In data set [9] (listed as 3′,5′-divalinyl ester hydrochloride of β-L-dC), the “Solubility (mol/L)” value is given as “more than 2.5 mol/L”. Also, the “conversion detected in the organic phase during log P experiment” value in data set [18] worked out at 14%. For the same compound, in data set [12], the “share of the oral dose absorbed” value is reported as “approximately 73%”. Also, the “share of the absorbed ester converted to L-dC” value in data set [12] (oral) is recorded as “more than 99%”. In addition, the “% BA w/ L-dT” value in data set [12] (oral, coadministered with 10 mg/kg L-dT) is given as 74.6 ± 9.9%. Also, the “% BA (bioavailability of L-dC)” value in [12] (oral, listed as 3′,5′-divaline ester of L-dC) was “higher oral bioavailability than the parent L-dC”; in data set [12] (oral, listed as L-dC di-valine), 72.7 ± 22.0%.
Consider `Cc1cn([C@H]2C[C@H](N=[N+]=[N-])[C@@H](CO)O2)c(=O)[nH]c1=O` [ZDV, zidovudine, reference compound], for which the IC50 in data set [19] is 700 nM; in data set [20] it was 1800 nM. The same compound showed a CC50 at 14 days in [13] of 14000 nM. For the same compound, in the data set on HepG2 cells [21], the “mtDNA, % of Control” value is given as 119 % of Control.
As to `O=c1[nH]c(=O)n([C@@H]2O[C@H](CO)[C@@H](O)[C@@H]2F)cc1I` [FIAU, fialuridine, reference compound], it took 4000 nM to reach half-maximal cytotoxicity in data set [13] (CC50 at 14 days). For the same compound, the “mtDNA, % of Control” value in the data set with HepG2 cells [21] is listed as 86 % of Control.
